From patent US11739098B2 (BRISTOL-MYERS SQUIBB COMPANY, priority 2017, dated 2023)

Legend:
Format in all cases: cell-based
human TLR7 = target: T1, human TLR7 (Homo sapiens, UniProt Q9NYK1); assay: TLR7 inhibition reporter assay (HEK-Blue cells, SEAP reporter, gardiquimod stimulation); conditions: HEK-Blue cells overexpressing human TLR7, SEAP reporter, gardiquimod 7.5 μM
T1 construct: host or cells: HEK-Blue cells (HEK293-derived reporter line)
T1 sequence (Q9NYK1 27-1049): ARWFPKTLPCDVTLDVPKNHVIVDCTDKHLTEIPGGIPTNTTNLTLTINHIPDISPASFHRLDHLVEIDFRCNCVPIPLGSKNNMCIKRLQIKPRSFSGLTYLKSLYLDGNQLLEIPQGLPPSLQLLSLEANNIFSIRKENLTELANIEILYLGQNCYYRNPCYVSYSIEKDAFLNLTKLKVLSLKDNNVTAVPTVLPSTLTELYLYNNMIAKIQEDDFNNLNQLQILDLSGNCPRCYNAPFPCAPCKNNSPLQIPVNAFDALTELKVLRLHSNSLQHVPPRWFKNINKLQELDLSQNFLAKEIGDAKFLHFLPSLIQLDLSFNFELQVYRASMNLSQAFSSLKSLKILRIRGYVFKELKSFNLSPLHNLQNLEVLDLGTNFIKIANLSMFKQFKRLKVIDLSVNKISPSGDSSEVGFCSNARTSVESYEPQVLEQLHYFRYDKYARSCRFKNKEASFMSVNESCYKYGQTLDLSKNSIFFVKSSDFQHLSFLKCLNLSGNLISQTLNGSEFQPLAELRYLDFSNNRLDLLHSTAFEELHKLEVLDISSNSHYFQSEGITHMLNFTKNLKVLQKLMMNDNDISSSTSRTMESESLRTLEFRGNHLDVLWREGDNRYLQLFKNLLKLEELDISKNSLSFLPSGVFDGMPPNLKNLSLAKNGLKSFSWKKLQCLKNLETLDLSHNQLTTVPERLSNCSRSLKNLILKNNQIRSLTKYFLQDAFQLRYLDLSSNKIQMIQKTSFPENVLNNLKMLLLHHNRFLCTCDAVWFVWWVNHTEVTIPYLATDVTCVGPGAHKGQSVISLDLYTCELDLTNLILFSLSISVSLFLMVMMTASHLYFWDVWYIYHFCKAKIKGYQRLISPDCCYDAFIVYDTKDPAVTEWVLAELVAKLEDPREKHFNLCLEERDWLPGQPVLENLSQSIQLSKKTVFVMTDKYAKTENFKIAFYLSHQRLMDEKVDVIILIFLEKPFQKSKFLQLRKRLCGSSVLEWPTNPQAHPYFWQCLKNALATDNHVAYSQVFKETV
Summary of the method: (§1)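 HEK-Blue cells overexpressing human TLR7, TLR8 or TLR9 (NF-κB/AP-1-driven SEAP) pre-treated 30 min at room temperature with compound (0.05 nM–50 μM), then stimulated with gardiquimod 7.5 μM (TLR7), R848 15.9 μM (TLR8) or ODN2006 5 nM (TLR9). SEAP read colorimetrically after 22 h at 37 °C; % inhibition calculated.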

human TLR9 = target: T2, human TLR9 (Homo sapiens, UniProt Q9NR96); assay: TLR9 inhibition reporter assay (HEK-Blue cells, SEAP reporter, ODN2006 stimulation); conditions: HEK-Blue cells overexpressing human TLR9, SEAP reporter, ODN2006 5 nM
T2 construct: host or cells: HEK-Blue cells (HEK293-derived reporter line)
T2 sequence (Q9NR96 26-1032): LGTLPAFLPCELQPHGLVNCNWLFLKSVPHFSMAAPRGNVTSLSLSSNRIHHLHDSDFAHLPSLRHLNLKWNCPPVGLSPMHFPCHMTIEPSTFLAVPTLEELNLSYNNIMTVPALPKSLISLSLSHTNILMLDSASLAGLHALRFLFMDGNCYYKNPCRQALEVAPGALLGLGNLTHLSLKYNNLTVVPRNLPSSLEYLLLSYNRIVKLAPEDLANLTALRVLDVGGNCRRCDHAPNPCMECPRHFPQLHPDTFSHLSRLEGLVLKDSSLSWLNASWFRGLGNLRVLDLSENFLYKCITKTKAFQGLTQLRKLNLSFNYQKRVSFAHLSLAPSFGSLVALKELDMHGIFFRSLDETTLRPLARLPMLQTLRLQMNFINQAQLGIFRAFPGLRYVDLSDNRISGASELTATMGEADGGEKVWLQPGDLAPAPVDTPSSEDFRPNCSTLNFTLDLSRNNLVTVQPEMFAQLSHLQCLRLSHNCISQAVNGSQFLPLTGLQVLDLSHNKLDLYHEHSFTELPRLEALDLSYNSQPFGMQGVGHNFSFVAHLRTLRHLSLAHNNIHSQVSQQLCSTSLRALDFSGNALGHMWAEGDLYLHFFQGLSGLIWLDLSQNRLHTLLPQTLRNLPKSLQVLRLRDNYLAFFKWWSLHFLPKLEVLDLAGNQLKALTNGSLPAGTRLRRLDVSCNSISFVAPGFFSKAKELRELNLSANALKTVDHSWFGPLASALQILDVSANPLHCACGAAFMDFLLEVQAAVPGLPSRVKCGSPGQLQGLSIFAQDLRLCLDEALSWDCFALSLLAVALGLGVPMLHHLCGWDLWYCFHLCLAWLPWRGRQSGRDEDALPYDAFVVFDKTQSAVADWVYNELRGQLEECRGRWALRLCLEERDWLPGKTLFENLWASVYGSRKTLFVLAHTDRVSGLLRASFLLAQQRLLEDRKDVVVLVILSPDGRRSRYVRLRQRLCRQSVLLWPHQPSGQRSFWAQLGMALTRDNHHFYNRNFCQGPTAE
Summary of the method: as §1

human TLR8 = target: T3, human TLR8 (Homo sapiens, UniProt Q9NR97); assay: TLR8 inhibition reporter assay (HEK-Blue cells, SEAP reporter, R848 stimulation); conditions: HEK-Blue cells overexpressing human TLR8, SEAP reporter, R848 15.9 μM
T3 construct: host or cells: HEK-Blue cells (HEK293-derived reporter line)
T3 sequence (Q9NR97 27-1041): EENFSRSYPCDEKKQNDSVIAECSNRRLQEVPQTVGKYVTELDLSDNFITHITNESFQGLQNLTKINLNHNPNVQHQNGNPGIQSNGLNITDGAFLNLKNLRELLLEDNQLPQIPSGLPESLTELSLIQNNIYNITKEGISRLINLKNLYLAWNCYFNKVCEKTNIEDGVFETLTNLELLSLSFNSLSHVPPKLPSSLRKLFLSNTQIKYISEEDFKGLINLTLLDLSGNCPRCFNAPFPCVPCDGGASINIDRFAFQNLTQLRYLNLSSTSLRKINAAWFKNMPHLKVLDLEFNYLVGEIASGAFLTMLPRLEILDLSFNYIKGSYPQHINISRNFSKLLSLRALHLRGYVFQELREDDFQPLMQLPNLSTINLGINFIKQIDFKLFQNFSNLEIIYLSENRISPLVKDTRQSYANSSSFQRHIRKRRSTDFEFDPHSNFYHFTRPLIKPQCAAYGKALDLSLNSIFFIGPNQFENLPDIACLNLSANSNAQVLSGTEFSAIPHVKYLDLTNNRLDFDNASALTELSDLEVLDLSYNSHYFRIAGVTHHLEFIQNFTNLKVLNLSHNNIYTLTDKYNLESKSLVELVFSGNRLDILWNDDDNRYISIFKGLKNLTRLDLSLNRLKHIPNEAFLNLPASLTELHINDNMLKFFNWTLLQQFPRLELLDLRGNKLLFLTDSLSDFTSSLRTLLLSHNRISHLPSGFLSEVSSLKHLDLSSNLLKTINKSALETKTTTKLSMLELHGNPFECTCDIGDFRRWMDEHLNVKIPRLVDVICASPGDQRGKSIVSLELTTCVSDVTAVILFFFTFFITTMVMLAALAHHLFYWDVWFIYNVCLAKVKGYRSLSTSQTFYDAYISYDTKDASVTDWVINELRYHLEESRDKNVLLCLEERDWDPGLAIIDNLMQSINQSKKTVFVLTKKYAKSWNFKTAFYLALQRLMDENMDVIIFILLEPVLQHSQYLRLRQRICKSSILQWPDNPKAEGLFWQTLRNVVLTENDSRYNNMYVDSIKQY
Summary of the method: as §1

SMILES | IC50 (human TLR7) [nM] | IC50 (human TLR9) [nM] | IC50 (human TLR8) [nM]
CC(C)c1c(-c2ccc3nccn3c2)[nH]c2ccc(C3CCNCC3)c(F)c12 [Example 258, 6-(4-fluoro-3-isopropyl-5-(piperidin-4-yl)-1H-indol-2-yl)imidazo[1,2-a]pyridine] | < 100 | 100 to 1000 | < 100
Cc1cc(-c2[nH]c3ccc(C4CCNCC4)cc3c2C(C)C)cc2cn(C)nc12 [Example 138, 5-(3-isopropyl-5-(piperidin-4-yl)-1H-indol-2-yl)-2,7-dimethyl-2H-indazole] | < 100 | 1000 to 50000 | < 100
CCN(C)C(=O)c1cn2cc(-c3[nH]c4ccc(C5CCNCC5)cc4c3C(C)C)cc(C)c2n1 [Example 266, N-ethyl-6-(3-isopropyl-5-(piperidin-4-yl)-1H-indol-2-yl)-N,8-dimethylimidazo[1,2-a]pyridine-2-carboxamide] | < 100 | 1000 to 50000 | < 100
CC(C)c1c(-c2ccnc3[nH]ncc23)[nH]c2ccc(C3CCN(C4CCNCC4O)CC3)cc12 (stereo not drawn) [Example 804, 4-(3-isopropyl-2-(1H-pyrazolo[3,4-b]pyridin-4-yl)-1H-indol-5-yl)-[1,4′-bipiperidin]-3′-ol] | < 100 | 100 to 1000 | < 100
CC(C)c1c(-c2ccnc3[nH]ncc23)[nH]c2ccc(C3CCNC(=O)C3)cc12 (stereo not drawn) [Example 248, 4-(3-Isopropyl-2-(1H-pyrazolo[3,4-b]pyridin-4-yl)-1H-indol-5-yl)piperidin-2-one] | 100 to 1000 | > 50000 | < 100
CC(C)c1c(-c2cc(C(C)(C)O)c3nccn3c2)[nH]c2ccc(C3CCNCC3)cc12 [Example 134, 2-(6-(3-isopropyl-5-(piperidin-4-yl)-1H-indol-2-yl)imidazo[1,2-a]pyridin-8-yl)propan-2-ol] | < 100 | 100 to 1000 | 100 to 1000
CCc1c(-c2ccc3oc(=O)[nH]c3c2)[nH]c2ccc(C3CCNCC3)cc12 [Example 168, 5-(3-ethyl-5-(piperidin-4-yl)-1H-indol-2-yl)benzo[d]oxazol-2(3H)-one] | 100 to 1000 | 100 to 1000 | 100 to 1000
CCc1c(-c2cnc3cncc(OC)n23)[nH]c2ccc(C3CCNCC3)cc12 [Example 25, 3-(3-ethyl-5-(piperidin-4-yl)-1H-indol-2-yl)-5-methoxyimidazo[1,2-a]pyrazine] | 1000 to 50000 | 100 to 1000 | 1000 to 50000
CC(C)c1c(-c2cnc3ccnn3c2)[nH]c2ccc(C3CCN(C(C)C)CC3)cc12 [Example 944, 6-(3-isopropyl-5-(1-isopropylpiperidin-4-yl)-1H-indol-2-yl)pyrazolo[1,5-a]pyrimidine] | 1000 to 50000 | 1000 to 50000 | > 3130

Further lines, results first:

IC50 (human TLR7) [nM] | IC50 (human TLR9) [nM] | IC50 (human TLR8) [nM] | SMILES
< 100 | 1000 to 50000 | < 100 | COc1cc(-c2[nH]c3ccc(C4CCN(CC(N)=O)CC4)cc3c2C(C)C)nn2ncnc12 [Example 284, 2-(4-(3-isopropyl-2-(8-methoxy-[1,2,4]triazolo[1,5-b]pyridazin-6-yl)-1H-indol-5-yl)piperidin-1-yl)acetamide]
< 100 | 1000 to 50000 | < 100 | Cc1cc(-c2[nH]c3ccc(C4CCN(CC(=O)N(C)C)CC4)cc3c2C(C)C)cc2ncnn12 [Example 324, 2-(4-(3-isopropyl-2-(5-methyl-[1,2,4]triazolo[1,5-a]pyridin-7-yl)-1H-indol-5-yl)piperidin-1-yl)-N,N-dimethylacetamide]
< 100 | 100 to 1000 | < 100 | Cc1cc(-c2[nH]c3ccc(C4CCN(CC(C)(C)O)CC4)cc3c2C(C)C)cn2ccnc12 [Example 774, 1-(4-(3-isopropyl-2-(8-methylimidazo[1,2-a]pyridin-6-yl)-1H-indol-5-yl)piperidin-1-yl)-2-methylpropan-2-ol]
< 100 | 1000 to 50000 | < 100 | Cc1cc2cc(-c3[nH]c4ccc(C5CCN(CC(=O)N(C)C)CC5)cc4c3C(C)C)cc(C)n2n1 [Example 420, 2-(4-(2-(2,7-dimethylpyrazolo[1,5-a]pyridin-5-yl)-3-isopropyl-1H-indol-5-yl)piperidin-1-yl)-N,N-dimethylacetamide]
< 100 | 1000 to 50000 | < 100 | Cc1cc(-c2[nH]c3ccc(C4CCN(C5CCS(=O)(=O)CC5)CC4)cc3c2C(C)C)cc2cnnn12 [Example 794, 4-(4-(3-isopropyl-2-(7-methyl-[1,2,3]triazolo[1,5-a]pyridin-5-yl)-1H-indol-5-yl)piperidin-1-yl)tetrahydro-2H-thiopyran 1,1-dioxide]
100 to 1000 | 100 to 1000 | 100 to 1000 | Cc1cn2c(C)cc(-c3[nH]c4ccc(C5CCNCC5)cc4c3C(C)C)cc2n1 [Example 160, 7-(3-isopropyl-5-(piperidin-4-yl)-1H-indol-2-yl)-2,5-dimethylimidazo[1,2-a]pyridine]
